Activity calls are given as the source filed them. The rule behind the calls is not given here.
What was measured:
[1] = system: Human immunodeficiency virus; assay: HIV-latency reversing activity in human NH2 cells at 10 nM pretreated with PKC inhibitor, Go6983 for 1 hr followed by compound addition and measured after 12 hrs by luciferase based assay; format: functional, organism-based
[2] = system: Human immunodeficiency virus; assay: HIV-latency reversing activity in human J-Lat Tat-GFP Clone A2 cells at 10 nM measured after 24 hrs by fluorescence based analysis; format: functional, organism-based
[3] = system: Human immunodeficiency virus; assay: HIV-latency reversing activity in human NH2 cells at 10 nM measured after 24 hrs by luciferase based assay; format: functional, organism-based
[4] = system: Human immunodeficiency virus; assay: Reactivation of latent HIV in human J-Lat Tat-GFP Clone A2 cells measured after 24 hrs by fluorescence based analysis; format: functional, organism-based; settings: dose 0.5-40 nM
[5] = system: Human immunodeficiency virus; assay: Reactivation of latent HIV in human J-Lat 2D10 cells measured after 24 hrs by fluorescence based analysis; format: functional, organism-based; settings: dose 0.5-40 nM
[6] = system: Human immunodeficiency virus; assay: Reactivation of latent HIV in human NH1 cells measured after 24 hrs by luciferase based analysis; format: functional, organism-based; settings: dose 0.5-10 nM
[7] = system: Human immunodeficiency virus; assay: Reactivation of latent HIV in human NH2 cells at 10 nM by luciferase based analysis; format: functional, organism-based; settings: time 6-36 hrs, TDE = time-dependent effect
[8] = system: Human immunodeficiency virus; assay: Reactivation of latent HIV in human NH2 cells measured after 24 hrs by luciferase based analysis; format: functional, organism-based; settings: dose 0.5-10 nM
[9] = system: Human immunodeficiency virus; assay: Reactivation of latent HIV in human J-Lat Tat-GFP Clone A2 cells at 10 nM by fluorescence based analysis; format: functional, organism-based; settings: time 6-36 hrs, TDE = time-dependent effect
[10] = system: Human immunodeficiency virus; assay: Reactivation of latent HIV in human J-Lat 2D10 cells at 10 nM by fluorescence based analysis; format: functional, organism-based; settings: time 6-36 hrs, TDE = time-dependent effect
[11] = system: Human immunodeficiency virus; assay: Reactivation of latent HIV in human NH1 cells at 10 nM by luciferase based analysis; format: functional, organism-based; settings: time 6-36 hrs, TDE = time-dependent effect
J-Lat Tat-GFP Clone A2 [12] = assay: Cytotoxicity against human J-Lat Tat-GFP Clone A2 cells at 1 uM incubated for 72 hrs; format: toxicity, cell-based; settings: j-lat tat-gfp clone a2, 72 h
NH2 [13] = assay: Activation of NFkappaB signalling pathway in human NH2 cells assessed as induction of IkappaBalpha degradation measured after 1 hr by Western blot analysis; format: cell-based; settings: filed as activator, dose 0-80 nM
J-Lat Tat-GFP Clone A2 [14] = assay: Activation of NFkappaB signalling pathway in human J-Lat Tat-GFP Clone A2 cells assessed as induction of IkappaBalpha degradation measured after 1 hr by Western blot analysis; format: cell-based; settings: filed as activator, dose 0-80 nM
NH2 [15] = assay: Activation of NFkappaB signalling pathway in human NH2 cells assessed as induction of IkappaBalpha degradation at 40 nM by Western blot analysis; format: cell-based; settings: filed as activator, time 5-120 min, TDE = time-dependent effect
J-Lat Tat-GFP Clone A2 [16] = assay: Activation of NFkappaB signalling pathway in human J-Lat Tat-GFP Clone A2 cells assessed as induction of IkappaBalpha degradation at 40 nM by Western blot analysis; format: cell-based; settings: filed as activator, time 5-120 min, TDE = time-dependent effect
NH2 [17] = assay: Activation of NFkappaB signalling pathway in human NH2 cells assessed as increase in translocation of p65 from cytoplasm to nucleus at 40 nM measured after 15 to 60 mins by Western blot analysis; format: cell-based; settings: filed as activator, time 15-60 min
J-Lat Tat-GFP Clone A2 [18] = assay: Activation of NFkappaB signalling pathway in human J-Lat Tat-GFP Clone A2 cells assessed as increase in translocation of p65 from cytoplasm to nucleus at 40 nM measured after 15 to 60 mins by Western blot analysis; format: cell-based; settings: filed as activator, time 15-60 min
[19] = system: Human immunodeficiency virus; assay: HIV-latency reversing activity in human NH2 cells at 10 nM pretreated with PDTC for 1 hr followed by compound addition and measured after 12 hrs by luciferase based assay; format: functional, organism-based
[20] = system: Human immunodeficiency virus; assay: Reactivation of latent HIV in human J-Lat Tat-GFP Clone A2 cells assessed as increase in GFP expression at 0 to 20 nM measured after 24 hrs by fluorescence microscopy; format: functional, organism-based; settings: dose 0-20 nM
[21] = system: Human immunodeficiency virus; assay: Reactivation of latent HIV in human NH1 cells assessed as fold change measured after 24 hrs by luciferase based analysis relative to -prostratin; format: functional
[22] = system: Human immunodeficiency virus; assay: Reactivation of latent HIV in human NH2 cells assessed as fold change measured after 24 hrs by luciferase based analysis relative to -prostratin; format: functional
[23] = system: Human immunodeficiency virus; assay: Reactivation of latent HIV in human J-Lat Tat-GFP Clone A2 cells assessed as increase in GFP expression at 10 nM by live fluorescence imaging analysis; format: functional, organism-based; settings: time 6-36 hrs, TDE = time-dependent effect
J-Lat Tat-GFP Clone A2 [24] = assay: Upregulation of BZW1 gene expression in human J-Lat Tat-GFP Clone A2 cells at 10 nM measured after 6 hrs by transcriptome analysis; format: functional, cell-based
J-Lat Tat-GFP Clone A2 [25] = assay: Upregulation of CD69 gene expression in human J-Lat Tat-GFP Clone A2 cells at 10 nM measured after 6 hrs by transcriptome analysis; format: functional, cell-based
J-Lat Tat-GFP Clone A2 [26] = assay: Upregulation of CHCHD2 gene expression in human J-Lat Tat-GFP Clone A2 cells at 10 nM measured after 6 hrs by transcriptome analysis; format: functional, cell-based

With `C=C(C)[C@]12C[C@@H](C)[C@@]34O[C@]5(CCCCCCC[C@H](C)[C@H]6[C@H](C)C(=O)[C@@](O)([C@H](O)[C@@]7(CO)O[C@H]7[C@H]3[C@H]1O5)[C@@H]64)O2` as the molecule, how does the Activity [1] read?
Its Activity is “inactive”.

And the Activity [2]?
Its Activity is “Active”.

And the Activity [3]?
Its Activity is “Active”.

What about the Activity [4] of the same molecule?
The Activity was “Dose-Dependent Effect”.

And the Activity [5]?
The Activity was “Dose-Dependent Effect”.

What about the Activity [6] of the same molecule?
Its Activity is “Dose-Dependent Effect”.

What about the Activity [7] of the same molecule?
The Activity was “Tde”.

And the Activity [8]?
The Activity was “Dose-Dependent Effect”.

And the Activity [9]?
The Activity was “Tde”.

What about the Activity [10] of the same molecule?
Its Activity is “Tde”.

And the Activity [11]?
Its Activity is “Tde”.

And the Activity (J-Lat Tat-GFP Clone A2 [12])?
The Activity was “Non-Toxic”.

And the Activity (NH2 [13])?
The Activity was “Dose-Dependent Effect”.

And the Activity (J-Lat Tat-GFP Clone A2 [14])?
The Activity was “Dose-Dependent Effect”.

What about the Activity (NH2 [15]) of the same molecule?
The Activity was “Tde”.

What about the Activity (J-Lat Tat-GFP Clone A2 [16]) of the same molecule?
Its Activity is “Tde”.

And the Activity (NH2 [17])?
The Activity was “Active”.

And the Activity (J-Lat Tat-GFP Clone A2 [18])?
The Activity was “Active”.

What about the Activity [19] of the same molecule?
The Activity was “inactive”.

And the Activity [20]?
The Activity was “Active”.

What about the “fold change (FC)” value [21] of the same molecule?
The value was 2500.

And the “fold change (FC)” value [22]?
Its value is 2500.

And the Activity [23]?
Its Activity is “Tde”.

What about the Activity (J-Lat Tat-GFP Clone A2 [24]) of the same molecule?
Its Activity is “Active”.

What about the Activity (J-Lat Tat-GFP Clone A2 [25]) of the same molecule?
Its Activity is “Active”.

And the Activity (J-Lat Tat-GFP Clone A2 [26])?
Its Activity is “Active”.
